These results are taken from patent US6972319B1, “Pituitary adenylate cyclase activating peptide (PACAP)receptor 3 (R3) agonists and their pharmacological methods of use” (priority 1999, dated 2005).

Like-named read-outs stand apart in the source and are kept apart here. No end group written: not given here.

For this test, the target named is T1, PACAP-R3 (Homo sapiens, UniProt P41587).
T1 sequence (P41587 24-438): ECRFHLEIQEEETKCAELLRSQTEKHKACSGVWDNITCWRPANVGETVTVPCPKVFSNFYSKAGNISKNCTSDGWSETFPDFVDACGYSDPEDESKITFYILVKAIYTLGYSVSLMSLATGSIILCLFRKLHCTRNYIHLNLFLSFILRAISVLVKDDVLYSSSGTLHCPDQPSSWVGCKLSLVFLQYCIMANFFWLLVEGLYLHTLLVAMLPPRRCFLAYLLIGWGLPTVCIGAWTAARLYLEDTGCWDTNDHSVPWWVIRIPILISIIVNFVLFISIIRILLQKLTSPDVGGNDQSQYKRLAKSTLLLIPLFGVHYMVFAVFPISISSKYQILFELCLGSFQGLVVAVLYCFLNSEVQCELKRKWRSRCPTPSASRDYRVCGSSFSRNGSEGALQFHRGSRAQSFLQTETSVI
The experiment in a line: Cyclic AMP SPA on CHO cells expressing PACAP R3. The arrangement: expressed in transfected cells; host or cells: CHO cells (Geneticin selection). The class given is cell-based. The following applies: for R3 Selectivity: ratio of EC50 at R2 versus EC50 at R3. How it is done: CHO cells expressing the PACAP R3 were plated in 96-well plates (Costar) at 8×10^4 cell/well and grown at 37 C. for 24 hours in α MEM+nucleosides+glutamine (Giobco BRL), 10% FBS, 100 μg/ml Pen/Strep, 0.3 mg/ml glutamine, 1 mM HEPES, 0.5 mg/ml Geneticin (Gibco BRL). The media was removed and the plates were washed with PBS. The cells were incubated with a peptide, in Hepes-PBS-BSA with 0.4 mg/mlSoybean Trypsin Inhibitor, 0.5 mg/ml Bacitracin, 100 uM IBMX, for 15 min at 37 C. Cyclic AMP in the cell extracts was quantitated using the cAMP SPA direct screening assay system (Amersham Pharmacia Biotech Inc, Piscataway, N.J.,). The peptides shown in Table 3 were assayed for cAMP activity.
EC50 is defined as the concentration of the polypeptide at which 50% of maximum PACAP27 activity is achieved. “NA” denotes no detectable activities. “R3 Selectivity” is derived from the ratio of EC50 at R2 versus EC50 at R3.

[1] abbreviates: cAMP SPA, CHO cells transfected with PACAP-R3, concentration at which 50% of maximum PACAP27 activity is achieved, NA = no detectable activities, read-out: R3 EC50.

The EC50 is the concentration that produces a half-maximal response.

For the molecule `CC[C@H](C)[C@H](NC(=O)CNC(=O)[C@H](CC(=O)O)NC(=O)[C@H](CO)NC(=O)[C@@H](N)Cc1c[nH]cn1)C(=O)N[C@@H](Cc1ccccc1)C(=O)N[C@H](C(=O)N[C@@H](CC(=O)O)C(=O)N[C@@H](CO)C(=O)N[C@@H](Cc1ccc(O)cc1)C(=O)N[C@@H](CO)C(=O)N[C@@H](CCCNC(=N)N)C(=O)N[C@@H](Cc1ccc(O)cc1)C(=O)N[C@@H](CCCNC(=N)N)C(=O)N[C@@H](CCCCN)C(=O)N[C@@H](CCC(N)=O)C(=O)N[C@@H](CCSC)C(=O)N[C@@H](CCCCN)C(=O)N[C@H](C(=O)N[C@@H](CCCCN)C(=O)N[C@@H](CCCCN)C(=O)N[C@@H](Cc1ccc(O)cc1)C(=O)N[C@@H](CC(C)C)C(=O)N[C@@H](C)C(=O)N[C@@H](C)C(=O)N[C@H](C(=O)N[C@@H](CC(C)C)C(N)=O)C(C)C)C(C)C)[C@@H](C)O` [PAC18], under setting [1], the EC50 turned out to be 1.1 nM.

“HSDAVFTDNYTRLRKQMAQKKYLNSIKNKR [Peptide R3P109]”: the “R3 Selectivity” value turned out to be 100. The EC50 under setting [1] was 10 nM. For HKDGIFTDSYSRYRKQMAVKKYLAAVL-NH2 [PAC2], the EC50 under setting [1] was found to be 34 nM. On to “H-HSDAVFTDNYTRLRKQLAVKKYLNDIKKGGT-OH [Peptide R3P21]”, for which the “R3 Selectivity” value is listed as 60. Under setting [1], the EC50 stood at 0.3 nM.

“Ac-HSDAVFTENYTKLRKQLAAKKYLNDLKKGGT [Peptide R3P2]”: under setting [1], the concentration for a half-maximal effect (EC50) amounted to 3 nM. Take `CSCC[C@H](NC(=O)[C@H](CCC(N)=O)NC(=O)[C@H](CCCCN)NC(=O)[C@H](CCCNC(=N)N)NC(=O)[C@H](Cc1ccc(O)cc1)NC(=O)[C@H](CCCNC(=N)N)NC(=O)[C@H](CO)NC(=O)[C@H](Cc1ccc(O)cc1)NC(=O)[C@H](CO)NC(=O)[C@H](CC(=O)O)NC(=O)[C@@H](NC(=O)[C@H](Cc1ccccc1)NC(=O)[C@H](CCCCN)NC(=O)CNC(=O)[C@H](CC(=O)O)NC(=O)[C@H](CO)NC(=O)[C@@H](N)Cc1c[nH]cn1)[C@@H](C)O)C(=O)N[C@@H](C)C(=O)N[C@H](C(=O)N[C@@H](CCCCN)C(=O)N[C@@H](CCCCN)C(=O)N[C@@H](Cc1ccc(O)cc1)C(=O)N[C@@H](CC(C)C)C(=O)N[C@@H](C)C(=O)N[C@@H](C)C(=O)N[C@H](C(=O)N[C@@H](CC(C)C)C(N)=O)C(C)C)C(C)C` [PAC5]: the EC50 under setting [1] stood at 0.7 nM. `CC[C@H](C)[C@H](NC(=O)[C@@H](NC(=O)[C@H](CC(N)=O)NC(=O)[C@H](CC(C)C)NC(=O)[C@H](Cc1ccc(O)cc1)NC(=O)[C@H](CCCCN)NC(=O)[C@H](CCCCN)NC(=O)[C@H](C)NC(=O)[C@H](C)NC(=O)[C@H](CC(C)C)NC(=O)[C@H](CCC(N)=O)NC(=O)[C@H](CCCCN)NC(=O)[C@H](CCCNC(=N)N)NC(=O)[C@H](CC(C)C)NC(=O)[C@H](CCCNC(=N)N)NC(=O)[C@@H](NC(=O)[C@H](Cc1ccc(O)cc1)NC(=O)[C@H](CCC(N)=O)NC(=O)[C@H](CC(=O)O)NC(=O)[C@@H](NC(=O)[C@H](Cc1ccccc1)NC(=O)[C@@H](NC(=O)[C@H](C)NC(=O)[C@H](CC(=O)O)NC(=O)[C@H](CO)NC(=O)[C@@H](N)Cc1c[nH]cn1)C(C)C)[C@@H](C)O)[C@@H](C)O)[C@@H](C)O)C(=O)N[C@@H](CCCCN)C(=O)N[C@@H](CC(N)=O)C(=O)N[C@@H](CCCCN)C(=O)N[C@@H](CCCNC(=N)N)C(=O)N[C@@H](Cc1ccc(O)cc1)C(=O)O` [Peptide R3P72]: the concentration giving a half-maximal response (EC50) under setting [1] was found to be 0.16 nM. “HSDAVFTDDYTRLRKEVAAKKYLESIKDKRY [Peptide R3P173]” came in with a concentration giving a half-maximal response (EC50) of 200 nM. Consider “H-HSDAVFTDNYTRLRKQMAAKKYLNSIGNKR-OH [Peptide R3P121]”, for which the “R3 Selectivity” value is 50. Besides, the concentration giving a half-maximal response (EC50) under setting [1] amounted to 1 nM.
